Legend:
[1] = test system: mice; assay: Acute hypobaric hypoxia: lifespan of mice at the height of 11,000 m; type: in vivo, mice (male, tetrahybrids)
Method: (§1) The antihypoxic effect of the compound according to the present invention was studied in comparison with pyracetam on various experimental models of hypoxic states in experiments on mice and rats. The compound according to the present invention and pyracetam were administered intraperitoneally in the form of an aqueous emulsion prepared with Tween-80.
(§2) The studies were carried out on a model of an acute hypobaric hypoxia.
(§3) An acute […] hypoxia was modelled in a flow-type barometric chamber at an ambient temperature of 17°-20° C. with absorption of carbon dioxide and water.
(§4) The test animals (male mice, tetrahybrids) with a mass of 15-22 g of the same generation were "lifted" (under simulation conditions) at the mean speed of 50 m/sec to the height of 11,000 m at which the lifespan (in minutes) for the same series of experiments was evaluated. Furthermore, the mice were discretely lifted at the same speed to the height of 10,000 m where they stayed for 1 minute and then to the height of 11,000 m, where they again were kept for 1 minute and so on, till their death for the determination of the height "ceiling", The animals' death was adjudicated by the occurrence of an agonal breathing against the background of convulsions. The total number of mice employed in the experiments was 200.
(§5) As the comparison preparation pracetam was used. The compound according to the present invention and pyracetam were administered one hour before the "lift".

[2] = test system: mice; assay: Lifespan of mice under acute hypoxic hypoxia with hypercapnia (sealed chamber); type: in vivo, mice (nondescript white male)
Method: as §1
Tests were carried out on a model of an acute hypoxic hypoxia with hypercapnia.
The tests were conducted using 540 nondescript while male mice with a mass of 20-22 g. Each mouse was separately placed into a sealed chamber (with the capacity of 250 ml) 60 minutes after administration of the compound according to the present invention in the doses of 50, 100, 250, 500 and 750 mg/kg. The control animals were issued with an isotonic solution of sodium chloride. The antihypoxic activity was assessed by the lifespan of the mice in the sealed chamber (in minutes).

[3] = test system: mice; assay: Acute hypobaric hypoxia: height ceiling for mice (Hmax); type: in vivo, mice (male, tetrahybrids)
Method: as §1, §2, §3, §4, §5

[4] = test system: rats; assay: Acute normobaric hypoxia: lifespan of rats; type: in vivo
Method: as §1
(§6) Investigations were also carried out with a model of an acute normobaric hypoxia.
(§7) An acute normobaric hypoxia was simulated in a flow-type barometric chamber at an ambient temperature of 17°-22° C. with absorption of carbon dioxide and water. A gas mixture ([…] and 3% of O2) was admitted into the barometric chamber at the rate of 10 1/min. The lifespan of test animals (mice, rats) in the chambers was recorded since the moment of the mixture admission into the chamber till the moment of perdition of the animals which was adjudicated by an agonal breathing against the background of convulsions. The modes of administration of the preparations, species of animals and analysis of the results of the experiments are similar to those described hereinbefore for the case of an acute hypobaric hypoxia. The experiments were carried out using 50 mice and 20 rats.

[5] = test system: mice; assay: Acute normobaric hypoxia: lifespan of mice; type: in vivo
Method: as §1, §6, §7

[6] = Convulsions caused by thiosemicarbazide; type: in vivo, white mice
From the text: The interaction of the compound according to the present invention with thiosemicarbazide--a specific antagonist of gamma-aminobutyric acid (GABA) was also studied.
Due to the fact that in functioning of the brain, in particular in processes of learning and memorizing, gammaaminobutyric acid (GABA) plays an important role, the possibility of the presence of a GABA-ergic component in the mechanism of action of the compound according to the present invention was studied. To this end, the ability of the compound according to the present invention to prevent convulsions caused by thiosemicarbazide, which is an inhibitor of an enzyme synthesizing gamma-aminobutyric acid, was studied.
The experiments were carried out on 140 white mice of 18-20 g mass. Thiosemicarbazide was administered hypodermally in the dose of 20 mg/kg. The compound according to the present invention was administered intraperitoneally in the doses of 50, 250 and 500 mg/kg 20 minutes after administration of thiosemicarbazide. For every dose 20 mice were used. The presence of the anticonvulsion activity was determined by the change of the latent period of occurrence of convulsions and by extension of the period of death of the animals. The experiments were carried out in comparison with pyracetam.

[7] = test system: mice; assay: Acute histotoxic hypoxia (sodium nitroprusside): lifespan of mice; type: in vivo
Method: as §1
The studies were carried out using a model of an acute histotoxic hypoxia.
An acute histotoxic hypoxia was induced by way of a subcutaneous injection of sodium nitroprusside in the dose of 20 mg/kg. This mode of administration results in a 100% death of mice in 15-25 minutes after administration of the preparation. The lifespan of the mice was adjudicated after administration of sodium nitroprusside against the background of the test compounds (the compound according to the present invention and pyracetam) which was recorded by the arrest of breathing and heart. In this series of experiments 40 animals altogether were used.

[8] = dose 4 times that of the compound of the invention

NC(=S)CN1CCCC1=S [Compound of the present invention, 1-thiocarbamylmethylpyrrolidine-2-thione]
lifespan of mice at the height of 11,000 m ([1]; 100 mg/kg): 12.58 ± 8.64 min
lifespan of mice at the height of 11,000 m, % (control = 100%) ([1]; 100 mg/kg): 206.2 ± 59.7%
lifespan of mice at the height of 11,000 m ([1]; 250 mg/kg): 19.97 ± 4.93 min
lifespan of mice at the height of 11,000 m, % (control = 100%) ([1]; 250 mg/kg): 327.4 ± 80.8%
lifespan of mice at the height of 11,000 m ([1]; 500 mg/kg): 30.0 ± 0 min
lifespan of mice at the height of 11,000 m, % (control = 100%) ([1]; 500 mg/kg): 491.8 ± 0.0%
superiority to pyracetam in effect on the lifespan duration at 11,000 m ([1]; versus pyracetam): 3-4 times
lifespan of mice under acute hypoxic hypoxia ([2]; 100 mg/kg i.p.): 56.3 min
lifespan of mice under acute hypoxic hypoxia ([2]; 250 mg/kg i.p.): 60.3 min
lifespan of mice under acute hypoxic hypoxia ([2]; 500 mg/kg i.p.): 95.2 min
extension of mice lifespan as compared to the control ([2]; 750 mg/kg): 4 times
increase of mice lifespan as compared to the control ([2]; 750 mg/kg): 324.5%
lifespan of mice under acute hypoxic hypoxia ([2]; 750 mg/kg i.p.): 119.2 min
minimal effective dose ([2]; Mus musculus, ip, read-out: dose beginning with which resistance to acute oxygen insufficiency is enhanced and lifespan extended): 100 mg/kg
height ceiling for mice (Hmax) ([3]; 250 mg/kg): 14.0 ± 0.707 thous. m
elevation of the height ceiling as compared to the control and pyracetam ([3]; 500 mg/kg): 4,000 m
height ceiling for mice (Hmax) ([3]; 500 mg/kg): 15.57 ± 0.85 thous. m
increase of resistance of rats to acute normobaric hypoxia as compared to the control ([4]; 250 mg/kg): 1.5 times
lifespan at an acute normobaric hypoxia, rats ([4]; 250 mg/kg): 27.38 ± 7.07 min
lifespan at an acute normobaric hypoxia, rats, % (control = 100%) ([4]; 250 mg/kg): 147.2 ± 38.0%
superiority to pyracetam in effectiveness, rats ([4]; versus pyracetam at 500 mg/kg): 1.5 times
increase of resistance of mice to acute normobaric hypoxia as compared to the control ([5]; mice, 250 mg/kg): 4.5 times
lifespan at an acute normobaric hypoxia, mice ([5]; mice, 250 mg/kg): 22.21 ± 3.23 min
lifespan at an acute normobaric hypoxia, mice, % (control = 100%) ([5]; mice, 250 mg/kg): 469.5 ± 68.3%
superiority to pyracetam in effectiveness, mice ([5]; mice, versus pyracetam at 500 mg/kg): 3.2 times
superiority to pyracetam in effectiveness ([5]; versus pyracetam at 250 mg/kg): 5 times
Latent period of convulsion occurrence ([6]; 50 mg/kg): 59 (51.5-66.5) min
Time period after which animals die ([6]; 50 mg/kg): 76 (64-88) min
Latent period of convulsion occurrence ([6]; 250 mg/kg): 82.6 (76.I-89.I) min
Time period after which animals die ([6]; 250 mg/kg): 100.8 min
Latent period of convulsion occurrence ([6]; 500 mg/kg): 80 (75.6-86.4) min
Time period after which animals die ([6]; 500 mg/kg): 105 (95-115) min
extension of the latent period of occurrence of convulsions as compared to the control ([6]; 250 and 500 mg/kg i.p.): 25-30%
extension of the period of death occurrence as compared to the control ([6]; 250 and 500 mg/kg i.p.): 45-50%
lifespan of mice at an acute histotoxic hypoxia ([7]; 250 mg/kg): 24.2 ± 2.46 min
lifespan of mice at an acute histotoxic hypoxia, % (control = 100%) ([7]; 250 mg/kg): 124.1 ± 12.6%
lifespan of mice at an acute histotoxic hypoxia ([7]; 500 mg/kg): 32.2 ± 4.95 min
lifespan of mice at an acute histotoxic hypoxia, % (control = 100%) ([7]; 500 mg/kg): 165.5 ± 25.4%
superiority to pyracetam in effectiveness ([7]; 500 mg/kg versus pyracetam 500 and 1,000 mg/kg): 1.5 times

NC(=O)CN1CCCC1=O [Pyracetam, 1-carbamidomethylpyrrolidone-2, reference compound]
lifespan of mice at the height of 11,000 m ([1]; 100 mg/kg): inactive
lifespan of mice at the height of 11,000 m ([1]; 250 mg/kg): 6.16 ± 0.72 min
lifespan of mice at the height of 11,000 m, % (control = 100%) ([1]; 250 mg/kg): 101.0 ± 11.8%
lifespan of mice at the height of 11,000 m ([1]; 500 mg/kg): 8.13 ± 2.43 min
lifespan of mice at the height of 11,000 m, % (control = 100%) ([1]; 500 mg/kg): 133.3 ± 39.9%
lifespan of mice under acute hypoxic hypoxia ([2]; 100 mg/kg i.p.): 27.4 min
lifespan of mice under acute hypoxic hypoxia ([2]; 250 mg/kg i.p.): 33.5 min
lifespan of mice under acute hypoxic hypoxia ([2]; 500 mg/kg i.p.): 39.6 min
lifespan of mice under acute hypoxic hypoxia ([2]; 750 mg/kg i.p.): 34.4 min
extension of mice lifespan as compared to the control ([2]; 2,000 mg/kg): 60%
lifespan of mice under acute hypoxic hypoxia ([2]; 2000 mg/kg i.p.): 45.0 min
lifespan of mice under acute hypoxic hypoxia ([2]; 2000 mg/kg i.p., listed as pyracetam): 45 min
lifespan of mice under acute hypoxic hypoxia ([2]; column 8, dose printed "100" mg/kg (between 750 and 2000), i.p.): 41.4 min
height ceiling for mice (Hmax) ([3]; 250 mg/kg): 10.96 ± 0.91 thous. m
height ceiling for mice (Hmax) ([3]; 500 mg/kg): 11.55 ± 0.62 thous. m
lifespan at an acute normobaric hypoxia, rats ([4]; 250 mg/kg): inactive
lifespan at an acute normobaric hypoxia, rats ([4]; 500 mg/kg): 17.3 ± 5.25 min
lifespan at an acute normobaric hypoxia, rats, % (control = 100%) ([4]; 500 mg/kg): 93.0 ± 28.2%
lifespan at an acute normobaric hypoxia, mice ([5]; mice, 250 mg/kg): 3.73 ± 0.254 min
lifespan at an acute normobaric hypoxia, mice, % (control = 100%) ([5]; mice, 250 mg/kg): 87.7 ± 5.97%
lifespan at an acute normobaric hypoxia, mice ([5]; mice, 500 mg/kg): 6.08 ± 0.744 min
lifespan at an acute normobaric hypoxia, mice, % (control = 100%) ([5]; mice, 500 mg/kg): 143.1 ± 17.5%
Latent period of convulsion occurrence ([6]; 1000 mg/kg): 66.6 (61.0-72.2) min
Time period after which animals die ([6]; 1000 mg/kg): 79.9 (64-96.8) min
Latent period of convulsion occurrence ([6]; 2000 mg/kg): 70.6 (65.6-75.6) min
Time period after which animals die ([6]; 2000 mg/kg): 82 (73.6-90.4) min
extension of the latent period of occurrence of convulsions as compared to the control [6, 8]: 10%
extension of the period of death as compared to the control [6, 8]: 17%
effect on thiosemicarbazide convulsions similar to that of the compound of the invention ([6]; higher doses): pronounced but very slightly
lifespan of mice at an acute histotoxic hypoxia ([7]; 1.000 mg/kg (= 1,000)): 20.97 ± 1.31 min
lifespan of mice at an acute histotoxic hypoxia, % (control = 100%) ([7]; 1.000 mg/kg (= 1,000)): 107.6 ± 6.7%
lifespan of mice at an acute histotoxic hypoxia ([7]; 250 mg/kg): inactive
lifespan of mice at an acute histotoxic hypoxia ([7]; 500 mg/kg): 17.98 ± 1.49 min
lifespan of mice at an acute histotoxic hypoxia, % (control = 100%) ([7]; 500 mg/kg): 92.2 ± 7.62%

Source: patent publication US4839380A, “1-Thiocarbamoylmethylpyrrolidine-2-thione, medical compositions of, and anti-hypoxic and nootropic use thereof” (priority 1988, dated 1989)
